The target of assay [1] is T1, human metabotropic glutamate receptor mGluR5 (Homo sapiens, UniProt P41594).
T1 construct: expressed in transfected cells; host or cells: CHO-K1 (h5CHO), IPTG-inducible
The experiment in a line: Cytosolic calcium studies with stably transfected cells (h5CHO), functional assay of mGluR5 receptors. The assay is classed as cell-based. The settings on record: Table A1; for h left shift: left shift of agonist EC50, dose response curves in the presence of 10 µM modulator or vehicle, h5CHO cells; for EC50: positive modulators, h5CHO cells preincubated with modulator, stimulated by an EC20 concentration of L-glutamate, read-out: hEC50. Here is the method: Chinese hamster ovary cells (CHO-K1 cells), stably transfected for inducible expression of a human metabotropic glutamate receptor mGluR5 to form a cell line called h5CHO, are seeded into black clear bottom 96 well plates at a density of 35.000 cells per well. The standard growth medium used (Dulbecco's modified Eagle Medium, DMEM plus L-proline) contains the appropriate inducer isopropyl-β-D-thiogalactopyranosid (IPTG) to achieve optimal receptor expression. One day after seeding the growth medium is exchanged for reconstituted Ca-Kit (Molecular Devices, USA) and incubated for one hour. Ca-Kit is reconstituted in an assay buffer containing 20 mM HEPES pH 7.4, glutamic-pyruvate transaminase, pyridoxal phosphate and sodium pyruvate in Hank's balanced salt solution (HBBS). Agonistic compounds to the receptor elicit increases in cytosolic calcium which can be measured as increases in fluorescence signals by use of a fluorescence imaging plate reader (Molecular Devices). To analyze their potency to negatively modulate the Ca-response test compounds, dissolved in a final DMSO concentration of 0.5%, are added on-line 5 minutes before the agonist to the receptor (L-quisqualic acid at a concentration giving ~80% of the maximal signal). EC50 values for positive allosteric modulators were determined by stimulating the cells which have been preincubated the modulators by an EC20 concentration of L-glutamate.
(§1) The fluorescence signal increase after addition of agonist reflects the increase of cytosolic calcium. Inconsistencies in the amount of cells per well are normalised by using the spatial uniformity correction of the FLIPR operating software Screenworks. The mean of replicated temporal data (n=3-5) is calculated and used for graphical representation. For the evaluation of the pharmacology, the calcium changes in response to different concentrations of agonist or antagonist are determined using a maximum minus minimum (MaxMin) calculation.
(§2) All responses (RFU-values) are determined as percentage of control (= maximum response). EC50 and IC50 are calculated according the logistic equation using XLFit (IDBS, UK) or Prism 4.0 (GraphPad Software, USA). The compounds of the present invention have a potency (EC50 or IC50) within a range of about 0.5 nM to about 100 µM. The left shifts for positive or slient allosteric modulators (PAMs or SAMs, respectively) are determined by comparison of EC50 values from agonist dose response curves run in the presence of 10 µM modulator or vehicle (Vanejevs et al., J. Med. Chem., 2008, 51, 634-647).

A further assay has as its target T2, mGluR5 receptors (Rattus norvegicus, UniProt P31424).
T2 construct: Primary astrocyte cultures are prepared from cortices of newborn rats; endogenous in cells; host or cells: primary cortical astrocytes from Sprague-Dawley rat pups (2-4 d old)
Description: Cytosolic calcium studies with astrocytes (FLIPR), functional assay of mGluR5 receptors. The assay is classed as cell-based. The settings on record: for r left shift: Table A1, left shift of quisqualate EC50 in the presence and absence of 10 µM modulator; for EC50: Table A1, positive modulators, fixed concentration of quisqualate (normally 10-30 nM), read-out: rEC50. The procedure: Primary astrocyte cultures are prepared from cortices of newborn rats as described by Booher and Sensenbrenner (1972, Neurobiology 2(3):97-105). Briefly, Sprague-Dawley rat pups (2 - 4 d old) are decapitated and neocortices are dissected, disintegrated with a nylon filter (pore size 80 µm) and carefully triturated. The cell suspension is plated on poly-D-lysine pre-coated flasks (Costar, Netherlands) and cultivated in Dulbecco's Modified Eagle's Medium (DMEM, Invitrogen, Germany) supplemented with 10% foetal calf serum (FCS, Sigma, Germany), 4 mM glutamine and 50 µg/ml gentamycin (both Biochrom, Germany) at 37°C in a humidified atmosphere of 5% CO2/ 95% air for 7 days with exchanging the medium at day 2 and 6.
After 7 days in vitro (DIV), cells are shaken overnight at 250 rpm to remove oligodendrocytes and microglia. The next day, astrocytes are rinsed twice with CMF-PBS (calcium- and magnesium-free phosphate buffered saline, Biochrom, Germany), trypsinized and subplated on poly-D-lysine pre-coated 96-well plates (Greiner, Germany) at a density of 40,000 cells/well. 24 h after establishing the secondary culture the astrocytes are rinsed with PBS^++ (phosphate buffered saline, Biochrom, Germany) and fed with astrocyte-defined medium (ADM) consisting of DMEM containing 1x G5-supplement (Invitrogen, Germany), 0.5 µg/ml heparan sulfate, and 1.5 µg/ml fibronectin (both Sigma, Germany) (Miller et al., (1993) Brain Res. 618(1):175-8). 3 days later the medium is exchanged and the cells incubated for another 2-3 days, so that at the time of experiments astrocytes are 14-15 DIV.
The increase of cytosolic calcium after stimulation with the mGluR5 agonist L-quisqualate is measured using a fluorometric imaging plate reader (FLIPR) and the Ca-Kit (both Molecular Devices). Prior to addition of agonist or antagonist the medium is aspirated and cells are loaded for 2 h at RT with 150 µl of loading buffer consisting of Ca-sensitive dye reconstituted in sodium chloride (123 mM), potassium chloride (5.4 mM), magnesium chloride (0.8 mM), calcium chloride (1.8 mM), D-glucose (15 mM), and HEPES (20 mM), pH 7.3. Subsequently, plates are transferred to FLIPR to detect calcium increase with the addition of L-quisqualate (100 nM) measured as relative fluorescence units (RFU). If antagonists are tested, these compounds are pre-incubated for 10 minutes at RT before addition of the respective agonist.
For positive modulators, concentration-response curves for quisqualate are performed in the presence and absence of 10 µM modulator to determine the extent of potentiation / agonist potency increase. Thereafter, concentration-response curves for the positive modulator are performed in the presence of a fixed concentration of quisqualate showing the biggest window for potentiation (normally 10-30 nM).
as §1, §2

We go through 14 molecules from patent EP2650284A1, “Heterocyclic derivatives as metabotropic glutamate receptor modulators” (Merz Pharma GmbH & Co. KGaA, priority 2012, dated 2013).

T2 sequence (P31424 21-1203): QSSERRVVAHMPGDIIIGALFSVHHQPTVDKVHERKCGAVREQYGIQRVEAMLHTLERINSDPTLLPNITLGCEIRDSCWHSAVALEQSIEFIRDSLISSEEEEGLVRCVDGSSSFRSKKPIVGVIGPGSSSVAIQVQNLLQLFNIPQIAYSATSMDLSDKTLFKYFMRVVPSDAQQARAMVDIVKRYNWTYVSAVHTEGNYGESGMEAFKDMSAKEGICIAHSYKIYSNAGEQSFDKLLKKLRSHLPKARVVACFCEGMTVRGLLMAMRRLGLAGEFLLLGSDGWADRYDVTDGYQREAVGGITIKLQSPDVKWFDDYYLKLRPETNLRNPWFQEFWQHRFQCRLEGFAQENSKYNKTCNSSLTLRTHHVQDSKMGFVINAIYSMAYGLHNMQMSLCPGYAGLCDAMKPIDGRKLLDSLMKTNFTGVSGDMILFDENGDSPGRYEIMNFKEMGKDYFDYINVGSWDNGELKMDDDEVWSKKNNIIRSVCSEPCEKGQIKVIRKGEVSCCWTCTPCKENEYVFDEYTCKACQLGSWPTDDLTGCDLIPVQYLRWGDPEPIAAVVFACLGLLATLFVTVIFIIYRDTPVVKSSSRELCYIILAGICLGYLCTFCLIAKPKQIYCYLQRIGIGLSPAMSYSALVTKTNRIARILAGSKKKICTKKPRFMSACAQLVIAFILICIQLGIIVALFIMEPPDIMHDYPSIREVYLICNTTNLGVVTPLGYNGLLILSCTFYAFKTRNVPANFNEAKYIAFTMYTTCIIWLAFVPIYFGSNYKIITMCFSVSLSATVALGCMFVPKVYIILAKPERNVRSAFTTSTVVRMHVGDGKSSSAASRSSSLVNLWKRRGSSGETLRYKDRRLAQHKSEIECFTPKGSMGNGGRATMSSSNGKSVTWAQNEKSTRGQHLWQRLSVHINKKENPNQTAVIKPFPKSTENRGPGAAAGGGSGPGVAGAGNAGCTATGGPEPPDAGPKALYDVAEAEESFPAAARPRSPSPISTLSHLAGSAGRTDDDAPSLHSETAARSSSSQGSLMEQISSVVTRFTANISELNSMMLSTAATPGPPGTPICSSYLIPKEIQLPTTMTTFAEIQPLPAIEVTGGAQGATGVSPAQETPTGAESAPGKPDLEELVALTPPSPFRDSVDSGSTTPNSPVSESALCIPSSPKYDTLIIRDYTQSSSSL
T1 sequence (P41594 21-1212): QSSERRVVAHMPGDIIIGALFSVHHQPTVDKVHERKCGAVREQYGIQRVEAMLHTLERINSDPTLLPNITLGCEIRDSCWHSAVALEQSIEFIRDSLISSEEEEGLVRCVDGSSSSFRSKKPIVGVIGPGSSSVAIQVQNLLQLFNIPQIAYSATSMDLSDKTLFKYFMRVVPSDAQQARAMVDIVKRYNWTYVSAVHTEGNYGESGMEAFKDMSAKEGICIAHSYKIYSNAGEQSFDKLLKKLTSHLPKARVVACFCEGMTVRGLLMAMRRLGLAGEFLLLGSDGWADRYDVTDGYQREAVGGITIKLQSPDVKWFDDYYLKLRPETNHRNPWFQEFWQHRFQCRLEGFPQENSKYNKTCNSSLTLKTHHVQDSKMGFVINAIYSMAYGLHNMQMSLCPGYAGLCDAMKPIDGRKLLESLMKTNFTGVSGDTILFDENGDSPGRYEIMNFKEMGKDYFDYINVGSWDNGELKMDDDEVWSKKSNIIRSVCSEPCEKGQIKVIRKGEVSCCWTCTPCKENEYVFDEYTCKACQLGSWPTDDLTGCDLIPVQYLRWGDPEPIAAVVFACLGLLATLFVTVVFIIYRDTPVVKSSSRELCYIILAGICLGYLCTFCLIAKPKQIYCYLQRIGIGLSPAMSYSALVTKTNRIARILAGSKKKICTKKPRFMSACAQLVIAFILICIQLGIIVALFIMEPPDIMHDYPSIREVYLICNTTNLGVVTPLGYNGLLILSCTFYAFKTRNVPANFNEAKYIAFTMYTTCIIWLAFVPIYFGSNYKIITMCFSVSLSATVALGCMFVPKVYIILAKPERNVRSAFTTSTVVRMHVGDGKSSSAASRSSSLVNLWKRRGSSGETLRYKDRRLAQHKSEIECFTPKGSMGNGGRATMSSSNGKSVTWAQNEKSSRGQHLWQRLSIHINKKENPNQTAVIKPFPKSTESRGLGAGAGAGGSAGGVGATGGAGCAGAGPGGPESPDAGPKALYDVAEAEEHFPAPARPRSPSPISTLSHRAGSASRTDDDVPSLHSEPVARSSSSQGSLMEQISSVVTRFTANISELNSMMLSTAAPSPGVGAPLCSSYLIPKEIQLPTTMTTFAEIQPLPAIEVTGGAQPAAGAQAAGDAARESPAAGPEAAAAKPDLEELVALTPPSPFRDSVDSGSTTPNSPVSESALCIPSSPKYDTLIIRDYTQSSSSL

Consider `CCN1CCO[C@@H]2c3cc(C#Cc4ccccc4)cnc3CC[C@@H]21` (racemic) [Example 14, (rac)-cis-4-Ethyl-9-(phenylethynyl)-3,4,4a,5,6,10b-hexahydro-2H-[1,4]oxazino[2,3-f]quinoline], for which, in assay [1], the h left shift is given as 2.2-fold and the EC50 worked out at 659 nM. Further, on mGluR5 receptors, the r left shift is on record as 3.6-fold and the EC50 stood at 580 nM.

With `CCCN1CCO[C@@H]2c3cc(C#Cc4ccccc4)cnc3CC[C@@H]21` (racemic) [Example 15, (rac)-cis-9-(Phenylethynyl)-4-propyl-3,4,4a,5,6,10b-hexahydro-2H-[1,4]oxazino[2,3-f]quinoline], in assay [1], the h left shift is on record as 3.2-fold and the EC50 is 88.6 nM. Further, at mGluR5 receptors, the r left shift is recorded as 5.2-fold and the EC50 was 175 nM.

Regarding `CCCN1CCO[C@@H]2c3cc(C#Cc4ccccc4F)cnc3CC[C@@H]21` (racemic) [Example 18, (rac)-cis-9-((2-Fluorophenyl)ethynyl)-4-propyl-3,4,4a,5,6,10b-hexahydro-2H-[1,4]oxazino[2,3-f]quinoline], in assay [1], the h left shift is 2.6-fold and the EC50 came out at 247 nM. Besides, at mGluR5 receptors, the r left shift is 2.6-fold and the EC50 was determined as 613 nM.

Regarding `CCCN1CCO[C@@H]2c3cc(C#Cc4cccc(F)c4)cnc3CC[C@@H]21` (racemic) [Example 19, (rac)-cis-9-((3-Fluorophenyl)ethynyl)-4-propyl-3,4,4a,5,6,10b-hexahydro-2H-[1,4]oxazino[2,3-f]quinoline], in assay [1], the h left shift is recorded as 1.9-fold and the EC50 was found to be 188 nM. Besides, at mGluR5 receptors, the r left shift is 2.6-fold and the EC50 is 323 nM.

Consider `CCCN1CCO[C@@H]2c3cc(C#Cc4ccc(F)cc4)cnc3CC[C@@H]21` (racemic) [Example 20, (rac)-cis-9-((4-Fluorophenyl)ethynyl)-4-propyl-3,4,4a,5,6,10b-hexahydro-2H-[1,4]oxazino[2,3-f]quinoline], for which, in assay [1], the h left shift was 1.8-fold and the EC50 stood at 394 nM. Besides, on mGluR5 receptors, the r left shift is 3.3-fold and the EC50 came to 1350 nM.

As for `CCCN1CCO[C@H]2c3cc(C#Cc4ccccc4)cnc3CC[C@@H]21` (racemic) [Example 22, (rac)-trans-9-(Phenylethynyl)-4-propyl-3,4,4a,5,6,10b-hexahydro-2H-[1,4]oxazino[2,3-f]quinoline], in assay [1], the h left shift is recorded as 2.2-fold and the EC50 amounted to 1800 nM. The r left shift at mGluR5 receptors is 1.8-fold.

For the molecule `CC(C)CN1CCO[C@@H]2c3cc(C#Cc4ccccc4)cnc3CC[C@@H]21` (racemic) [Example 23, (rac)-cis-4-Isobutyl-9-(phenylethynyl)-3,4,4a,5,6,10b-hexahydro-2H-[1,4]oxazino[2,3-f]quinoline], in assay [1], the h left shift is reported as 5.3-fold and the EC50 turned out to be 4 nM. Also, at mGluR5 receptors, the r left shift is 11.7-fold and the EC50 came out at 132 nM.

In the case of `FC(F)(F)CN1CCO[C@@H]2c3cc(C#Cc4ccccc4)cnc3CC[C@@H]21` (racemic) [Example 24, (rac)-cis-9-(Phenylethynyl)-4-(2,2,2-trifluoroethyl)-3,4,4a,5,6,10b-hexahydro-2H-[1,4]oxazino[2,3-f]quinoline], in assay [1], the h left shift is on record as 2.1-fold and the EC50 was 65.3 nM. Also, at mGluR5 receptors, the r left shift is on record as 4.2-fold and the EC50 amounted to 134 nM.

Regarding `FC(F)(F)CCN1CCO[C@@H]2c3cc(C#Cc4ccccc4)cnc3CC[C@@H]21` (racemic) [Example 25, (rac)-cis-9-(Phenylethynyl)-4-(3,3,3-trifluoropropyl)-3,4,4a,5,6,10b-hexahydro-2H-[1,4]oxazino[2,3-f]quinoline], in assay [1], the h left shift is recorded as 2.0-fold and the EC50 came out at 36.9 nM. Moreover, at mGluR5 receptors, the r left shift is listed as 3.6-fold and the EC50 came out at 136 nM.

For the molecule `COC(=O)N1CCO[C@@H]2c3cc(C#Cc4ccccc4)cnc3CC[C@@H]21` (racemic) [Example 26, (rac)-cis-Methyl 9-(phenylethynyl)-4a,5,6,10b-tetrahydro-2H-[1,4]oxazino[2,3-f]quinoline-4(3H)-carboxylate], in assay [1], the h left shift was 2.9-fold and the EC50 was 958 nM. On mGluR5 receptors, the r left shift is recorded as 4.4-fold and the EC50 is 599 nM.

Consider `CN(C)C(=O)N1CCO[C@@H]2c3cc(C#Cc4ccccc4)cnc3CC[C@@H]21` (racemic) [Example 27, (rac)-cis-N,N-Dimethyl-9-(phenylethynyl)-4a,5,6,10b-tetrahydro-2H [1,4]oxazino[2,3-f]quinoline-4(3H)-carboxamide], for which, in assay [1], the h left shift was 2.4-fold and the EC50 was 884 nM. Besides, on mGluR5 receptors, the r left shift was 3.3-fold and the EC50 came to 427 nM.

As to `CC(C)(C)[S+]([O-])N1CCc2ncc(C#Cc3ccccc3)cc2C1` (racemic) [Example 37, (rac)-6-(tert-Butylsulfinyl)-3-(phenylethynyl)-5,6,7,8-tetrahydro-1,6-naphthyridine], in assay [1], the h left shift is reported as 2.5-fold and the EC50 worked out at 472 nM. Further, on mGluR5 receptors, the r left shift is recorded as 3.3-fold and the EC50 worked out at 508 nM.

Take `COC(=O)N1C2CCC1c1cc(C#Cc3ccccc3)cnc1C2` (racemic) [Example 58, (rac)-Methyl 3-(phenylethynyl)-6,7,8,9-tetrahydro-5H-5,8-epiminocyclohepta[b]pyridine-10-carboxylate]: in assay [1], the h left shift is on record as 2.3-fold and the EC50 came out at 201 nM. At mGluR5 receptors, the r left shift is on record as 3.9-fold and the EC50 came out at 113 nM.

Take `COC(=O)N1C2CCC1c1cc(C#Cc3cccc(F)c3)cnc1C2` (racemic) [Example 59, (rac)-Methyl 3-((3-fluorophenyl)ethynyl)-6,7,8,9-tetrahydro-5H-5,8-epiminocyclohepta[b]pyridine-10-carboxylate]: in assay [1], the h left shift is recorded as 1.8-fold and the EC50 was 277 nM. Besides, on mGluR5 receptors, the r left shift was 3.3-fold and the EC50 was 102 nM.
